Experimental data: US12178807B2, “Macrocyclic tyrosine kinase inhibitor and uses thereof” (XUANZHU BIOPHARMACEUTICAL CO., LTD., priority 2018, dated 2024)

Legend:
[1] = tested on: Ba/F3 LMNA-NTRK1-G595R cell line; experiment: In vitro cytological inhibitory activity (CelltiterGlo assay); format: cell-based; conditions: Mus musculus, BaF3, Ba/F3 LMNA-NTRK1-G595R cells, 72 hrs
Method: (§1) The cell lines used in the experiment have the following meanings: Ba/F3 LMNA-NTRK1-G595R cell line: • a stable expression cell line of Ba/F3 cells transfected with LMNA-NTRK1 G595R; Ba/F3 ETV6-NTRK3-G623R cell line: • a stable expression cell line of Ba/F3 cells transfected with ETV6-NTRK3-G623R. Experimental Method (CelltiterGlo Assay) 1. Cell Culture and Inoculation
(§2) All cells were suspension cells and the medium was RPMI-1640+10% FBS, and cells were tested in a logarithmic growth phase.
(§3) Cells in the logarithmic growth phase were collected and counted using a […]. The cell viability was detected by the trypan blue exclusion method, and the cell viability was kept over 90%. The cell concentration was adjusted to be in a proper range; 90 μL of the cell suspension was added to a 96-well plate.
(§4) The stock solutions of test compounds were diluted from 10 mM to 1 mM with DMSO and then serially diluted in a 3-fold gradient for 9 concentrations. The 2 μL DMSO-gradient diluted compound solutions were added to 98 μL culture solutions to give working stock solutions of test compounds (compound concentration was 10-fold higher than the final concentration, DMSO concentration was 1%, maximum concentration was 10 μM).
(§5) • 10 μL of compound working stock solution was added to each well in the 96-well plate inoculated with cells (10-fold dilution, final DMSO concentration was 0.1%).
(§6) The cells were cultured in a cell culture incubator at 5% CO2 for 72 hrs.
(§7) The CTG reagent was thawed and the cell plate was equilibrated to room temperature for 30 mins, 60 μL of reagent (Celltiter Glo assay kit) was added to each well, shaking was performed for 2 mins with a shaker (in the absence of light), and the plate was incubated at room temperature for 10 mins (in the absence of light). The light signal values were read on the multi-functional microplate reader.
(§8) • 1) Inhibition (%)=(DMSO solvent control well reading−test compound well reading)/(DMSO solvent control well reading−blank well reading)×100%; • 2) a curve was plotted with GraphPad Prism 5.0 and IC50 was obtained.

[2] = tested on: Ba/F3 ETV6-NTRK3-G623R cell line; experiment: as above; format: cell-based; conditions: Mus musculus, BaF3, Ba/F3 ETV6-NTRK3-G623R cells, 72 hrs
Method: as §1, §2, §3, §4, §5, §6, §7, §8

[3] = tested on: BaF3-LMNA-NTRK1-G595R stable cell strain xenograft tumor; experiment: Efficacy study on BaF3-LMNA-NTRK1-G595R stable cell strain subcutaneous xenograft model; format: in vivo, mice (NOD-SCID); conditions: bid, p.o., 7 days
Method: The RPMI 1640 serum-free medium resuspended BaF3 LMNA-NTRK1-G595R stable cell strains were inoculated subcutaneously in the right scapular region of mice (NOD-SCID) at 1×10^6 cells/mouse (0.1 mL/mouse).
When the average tumor volume was around 500 mm^3, the groups were randomized into vehicle group, Compound 3 group (10 mg/kg, 5 mg/kg, 3 mg/kg, 1 mg/kg, bid) and LOXO-195 group (30 mg/kg, 10 mg/kg, 3 mg/kg, bid).

[4] = tested on: Ba/F3 SLC34A2/ROS1-G2032R cell line; experiment: In vitro cytological inhibitory activity (Celltiter-Glo assay); format: cell-based; conditions: Mus musculus, BaF3, Ba/F3 SLC34A2/ROS1-G2032R cells, 72 hrs
Method: The cell lines used in the experiment have the following meanings: • Ba/F3 SLC34A2/ROS1-G2032R cell line: • a stable expression cell line of Ba/F3 cells transfected with SLC34A2/ROS1-G2032R. Experimental Method (Celltiter-Glo Assay) 1. Cell Culture and Inoculation
as §2, §3
The stock solutions of test compounds were diluted from 10 mM to 1 mM with DMSO and then serially diluted in a 3.16-fold gradient for 9 concentrations. The 2 μL DMSO-gradient diluted compound solutions were added to 98 μL culture solutions to give working stock solutions of test compounds (compound concentration was 10-fold higher than the final concentration, DMSO concentration was 1%, maximum concentration was 10 μM).
as §5
The final concentrations of test compounds were: 1000 nM, 316 nM, 100 nM, 31.6 nM, 10 nM, 3.16 nM, 1 nM, 0.316 nM and 0.1 nM.
as §6
The CTG reagent was thawed and the cell plate was equilibrated to room temperature for 30 mins, 100 μL of reagent (Celltiter Glo assay kit) was added to each well, shaking was performed for 5 mins with a shaker (in the absence of light), and the plate was incubated at room temperature for 20 mins (in the absence of light). The light signal values were read on the multi-functional microplate reader.
• 1) Cell viability (%)=(test compound well reading−blank well reading)/(DMSO solvent control well reading−blank well reading)×100%; • 2) a curve was plotted with GraphPad Prism 5.0 and IC50 was obtained.

Compound	IC50 [1]	IC50 [2]	IC50 [4]	T/C (%) ([3]; Experiment 1, 3 mg/Kg)	TGI (%) ([3]; Experiment 1, 3 mg/Kg)	also measured
C[C@@H]1CCc2ncc(F)cc2[C@H]2CCCN2c2ccc3ncn(c3n2)C(=O)N1 (single isomer, unassigned) [Compound 11]	2 nM	1.9 nM	4.2 nM	–	–	–
C[C@@H]1CCc2ncc(F)cc2[C@H]2CCCN2c2ccn3ncc(c3n2)C(=O)N1 [LOXO-195, reference compound]	–	–	–	93.6%	6.4%	T/C (%) ([3]; Experiment 1, 10 mg/Kg): 63.1%; TGI (%) ([3]; Experiment 1, 10 mg/Kg): 36.9%; T/C (%) ([3]; Experiment 2, 30 mg/Kg): 0%; TGI (%) ([3]; Experiment 2, 30 mg/Kg): 100%

The remaining molecules from weak to strong by IC50 [1], led by results:

IC50 [1]	IC50 [2]	IC50 [4]	Compound	T/C (%) ([3]; Experiment 1, 3 mg/Kg)	TGI (%) ([3]; Experiment 1, 3 mg/Kg)	also measured
17.3 nM	18.9 nM	6.7 nM	C[C@H]1COc2ncc(F)cc2[C@@H](C)Nc2ccc3ncn(c3n2)C(=O)N1 [Compound 13, (3R,7S)-4^5-fluoro-3,7-dimethyl-1^3H-5-oxa-2,8-diaza-1(5,3)-imidazo[4,5-b]pyridina-4(3,2)-pyridinacyclononphan-9-one]	–	–	–
0.6 nM	1 nM	–	C[C@H]1COc2ncc(F)cc2[C@H]2CCCN2c2ccc3ncn(c3n2)C(=O)N1 (single isomer, unassigned) [Compound 2]	–	–	–
0.6 nM	1 nM	2.3 nM	C[C@@H]1COc2ncc(F)cc2[C@H]2CCCN2c2ccc3ncn(c3n2)C(=O)N1 (single isomer, unassigned) [Compound 3]	73.2%	26.8%	T/C (%) ([3]; Experiment 2, 1 mg/Kg): 53.7%; TGI (%) ([3]; Experiment 2, 1 mg/Kg): 46.3%; T/C (%) ([3]; Experiment 2, 5 mg/Kg): 0%; TGI (%) ([3]; Experiment 2, 5 mg/Kg): 100%; T/C (%) ([3]; Experiment 2, 10 mg/Kg): 0%; TGI (%) ([3]; Experiment 2, 10 mg/Kg): 100%
